The test system of the test is T-cell. The experiment in a line: IL-2 secretion from T-cells stimulated with anti-CD3 antibody alone (Biological Example 2). Format: cell-based. The settings on record: primary human total T-cells, read-out: IL-2 secretion, Anti-CD3 stimulation, fold change over baseline; for fold induction at 1 µM: 1 μM compound; for fold induction at 8 µM: 8 μM compound.

The structures appear in SMILES notation. Where only a bound is given, the exact number is not on record here.

Turning to `Cc1n[nH]c(C)c1-c1cc2c(c(C(F)(F)F)c1)CN(c1cccc(C3(Cc4nncn4C)COC3)c1)C2=O` [Compound 385, 6-(3,5-dimethyl-1H-pyrazol-4-yl)-2-(3-{3-[(4-methyl-4H-1,2,4-triazol-3-yl)methyl]oxetan-3-yl}phenyl)-4-(trifluoromethyl)-2,3-dihydro-1H-isoindol-1-one], the fold induction at 1 µM lay in the range of 0.101 to 0.15 and the fold induction at 8 µM was above 0.201.
Turning to `C[C@H](Cc1nncn1C)c1cccc(N2Cc3c(cc(CN4CC(O)C4)cc3C(F)(F)F)C2=O)c1` [Compound 393, (R)-6-((3-hydroxyazetidin-1-yl)methyl)-2-(3-(1-(4-methyl-4H-1,2,4-triazol-3-yl)propan-2-yl)phenyl)-4-(trifluoromethyl)isoindolin-1-one], the fold induction at 1 µM is above 0.201 and the fold induction at 8 µM is above 0.201.
For `C[C@H](Cc1nncn1C)c1cccc(N2Cc3c(cc(CN4CC(C)(O)C4)cc3C(F)(F)F)C2=O)c1` [Compound 397], the fold induction at 1 µM is 0.151 to 0.2 and the fold induction at 8 µM was above 0.201.
The like results for `C[C@H](Cc1nncn1C)c1cccc(N2Cc3c(cc(CN4CC[C@](C)(O)C4)cc3C(F)(F)F)C2=O)c1` [Compound 398, 6-(((S)-3-hydroxy-3-methylpyrrolidin-1-yl)methyl)-2-(3-((R)-1-(4-methyl-4H-1,2,4-triazol-3-yl)propan-2-yl)phenyl)-4-(trifluoromethyl)isoindolin-1-one] were, in that order, 0.101 to 0.15 and above 0.201.
For `C[C@H](Cc1nncn1C)c1cccc(N2Cc3c(cc(CN4CC[C@H](F)C4)cc3C(F)(F)F)C2=O)c1` [Compound 399, 6-(((S)-3-fluoropyrrolidin-1-yl)methyl)-2-(3-((R)-1-(4-methyl-4H-1,2,4-triazol-3-yl)propan-2-yl)phenyl)-4-(trifluoromethyl)isoindolin-1-one], the fold induction at 1 µM was in the range of 0.151 to 0.2 and the fold induction at 8 µM was above 0.201.
Take `Cn1cnnc1CC1(c2cccc(N3Cc4c(cc(CN5CC[C@H](C#N)C5)cc4C(F)(F)F)C3=O)c2)COC1` [Compound 422, (S)-1-((2-(3-(3-((4-methyl-4H-1,2,4-triazol-3-yl)methyl)oxetan-3-yl)phenyl)-3-oxo-7-(trifluoromethyl)isoindolin-5-yl)methyl)pyrrolidine-3-carbonitrile]: the fold induction at 1 µM was above 0.201 and the fold induction at 8 µM is above 0.201.
On to `Cn1cnnc1C(F)(F)[C@](C)(F)c1cccc(N2Cc3c(cc(C(=O)N4CC[C@H](O)C4)cc3C(F)(F)F)C2=O)c1` [Compound 438, 6-((S)-3-hydroxypyrrolidine-1-carbonyl)-2-(3-((R)-1,1,2-trifluoro-1-(4-methyl-4H-1,2,4-triazol-3-yl)propan-2-yl)phenyl)-4-(trifluoromethyl)isoindolin-1-one], for which the fold induction at 1 µM was 0.101 to 0.15 and the fold induction at 8 µM was above 0.201.
The like results for `Cn1cnnc1C(F)(F)[C@](C)(F)c1cccc(N2Cc3c(cc(N4CCNCC4)cc3C(F)(F)F)C2=O)c1` [Compound 442, (R)-6-(Piperazin-1-yl)-2-(3-(1,1,2-trifluoro-1-(4-methyl-4H-1,2,4-triazol-3-yl)propan-2-yl)phenyl)-4-(trifluoromethyl)isoindolin-1-one] were, in that order, above 0.201 and 0.051 to 0.1.
The matching figures for `Cn1cnnc1C(F)(F)[C@](C)(F)c1cccc(N2Cc3c(cc(CN4CC[C@@H](F)C4)cc3C(F)(F)F)C2=O)c1` [Compound 450]: above 0.201 and above 0.201.
`COC1CN(Cc2cc3c(c(C(F)(F)F)c2)CN(c2cccc([C@@](C)(F)C(F)(F)c4nncn4C)c2)C3=O)C1` [Compound 452, (R)-6-((3-methoxyazetidin-1-yl)methyl)-2-(3-(1,1,2-trifluoro-1-(4-methyl-4H-1,2,4-triazol-3-yl)propan-2-yl)phenyl)-4-(trifluoromethyl)isoindolin-1-one]: the fold induction at 1 µM lay within 0.151 to 0.2 and the fold induction at 8 µM is above 0.201.
As for `Cn1cnnc1C(F)(F)[C@](C)(F)c1cccc(N2Cc3c(cc(CN4CC[C@@H](C#N)C4)cc3C(F)(F)F)C2=O)c1` [Compound 455, (R)-1-((3-oxo-2-(3-((R)-1,1,2-trifluoro-1-(4-methyl-4H-1,2,4-triazol-3-yl)propan-2-yl)phenyl)-7-(trifluoromethyl)isoindolin-5-yl)methyl)pyrrolidine-3-carbonitrile], the fold induction at 1 µM is 0.151 to 0.2 and the fold induction at 8 µM is above 0.201.
The matching figures for `C[C@H](Cc1nncn1C)c1cccc(NC(=O)c2cc3cc(N4CCNCC4)ccc3cn2)c1` [Compound 472, N-{3-[(2R)-1-(4-methyl-4H-1,2,4-triazol-3-yl)propan-2-yl]phenyl}-6-(piperazin-1-yl)isoquinoline-3-carboxamide]: 0.101 to 0.15 and 0.101 to 0.15.

(Values after patent publication US20220324835A1 (Nurix Therapeutics, Inc., priority 2018, published 2022).)
